# Values quoted from earlier work in patent publication US5859019A, “Methods for protecting against cardiac ischemia by administering adenosine A2a receptor antagonists” (priority 1997, dated 1999).
# System: rat brain A1 and A2 receptors
# Conditions: rat brain adenosine receptors, radioligand binding; cited from earlier work
row,Structure (SMILES),A1/A2 ratio (A2a receptor selectivity ratio)
1,COc1ccccc1/C=C/c1nc2c(c(=O)n(C)c(=O)n2C)n1C [17b],18
2,COc1cccc(/C=C/c2nc3c(c(=O)n(C)c(=O)n3C)n2C)c1 [19b],64
3,Cn1c(=O)c2c(nc(/C=C/c3cccc(C(F)(F)F)c3)n2C)n(C)c1=O [20b],25
4,Cn1c(=O)c2c(nc(/C=C/c3cccc([N+](=O)[O-])c3)n2C)n(C)c1=O [21b],11
5,Cn1c(=O)c2c(nc(/C=C/c3cccc(N)c3)n2C)n(C)c1=O [22b],30
6,Cn1c(=O)c2c(nc(/C=C/c3cccc(F)c3)n2C)n(C)c1=O [27b],190
7,COc1ccc(/C=C/c2nc3c(c(=O)n(C)c(=O)n3C)n2C)cc1 [29b],44
8,COc1ccc(/C=C/c2nc3c(c(=O)n(C)c(=O)n3C)n2C)cc1OC [32b],70
9,COc1cc(/C=C/c2nc3c([nH]2)c(=O)n(C)c(=O)n3C)cc(OC)c1 [33a],25
10,COc1cc(/C=C/c2nc3c(c(=O)n(C)c(=O)n3C)n2C)cc(OC)c1 [33b],> 200
11,Cn1c(=O)c2c(nc(/C=C/c3cc(F)cc(F)c3)n2C)n(C)c1=O [34b],230
12,COc1ccc(/C=C/c2nc3c(c(=O)n(C)c(=O)n3C)n2C)c(OC)c1OC [43b],34
13,COc1cc(/C=C/c2nc3c(c(=O)n(C)c(=O)n3C)n2C)cc(OC)c1OC [44b],70
14,CCCn1c(=O)c2c(nc(/C=C/c3cc(OC)cc(OC)c3)n2C)n(CCC)c1=O [53b],110
15,CC(=O)Nc1cccc(/C=C/c2nc3c(c(=O)n(C)c(=O)n3C)n2C)c1 [compound 23],240
16,Cn1c(=O)c2c(nc(/C=C/c3cccc(NC(=O)CCC(=O)O)c3)n2C)n(C)c1=O [compound 24],250
17,Cn1c(=O)c2c(nc(/C=C/c3cccc(NC(=O)OC(C)(C)C)c3)n2C)n(C)c1=O [compound 25],30
18,Cn1c(=O)c2c(nc(/C=C/c3cccc(N(C(=O)OC(C)(C)C)C(=O)OC(C)(C)C)c3)n2C)n(C)c1=O [compound 26],15
19,COc1cc(/C=C/c2nc3c(c(=O)n(C)c(=O)n3C)n2C)cc(OC)c1O [compound 35],19
20,COc1cc(/C=C/c2nc3c(c(=O)n(C)c(=O)n3C)n2C)cc(OC)c1OC(C)=O [compound 36],93
21,COc1cc(/C=C/c2nc3c(c(=O)n(C)c(=O)n3C)n2C)cc(OC)c1OCc1ccccc1 [compound 37],30
22,COc1cc(/C=C/c2nc3c(c(=O)n(C)c(=O)n3C)n2C)cc(OC)c1OCCCCN [compound 38],36
23,COc1cc(/C=C/c2nc3c(c(=O)n(C)c(=O)n3C)n2C)cc(OC)c1OCCCCNC(=O)OC(C)(C)C [compound 39],42
24,COc1cc(/C=C/c2nc3c(c(=O)n(C)c(=O)n3C)n2C)cc(OC)c1OC/C=C/CN [compound 40],28
25,COc1cc(/C=C/c2nc3c(c(=O)n(C)c(=O)n3C)n2C)cc(OC)c1OC/C=C/CNC(C)=O [compound 41],> 50
26,COc1cc(/C=C/c2nc3c(c(=O)n(C)c(=O)n3C)n2C)cc(OC)c1OC/C=C/CNC(=O)OC(C)(C)C [compound 42],> 40
27,C=CCn1c(=O)c2c(nc(/C=C/c3cc(OC)c(OC)c(OC)c3)n2C)n(CC=C)c1=O [compound 46],13
